This note sets out measurements from patent publication US20150297609A1, “STERILE OPHTHALMIC PHARMACEUTICAL SUSPENSIONS” (SENTISS PHARMA PVT. LTD., priority 2012, published 2015).

This data set can be described thus: Particle size analysis of brinzolamide precipitated after autoclaving. The class given is physicochemical. The settings on record: precipitated during cooling after autoclaving, before size reduction. The source says: The precipitated brinzolamide is preferably in partially amorphous or crystalline form, preferably in crystalline form, more preferably in highly crystalline form. The particles are preferably in the form of fine particles. More preferably the fine particulate has an average particle size of less than 100 μm, more preferably less than 50 μm. The particle size can be reduced further by sonication to an average particle size less than […], more preferably less than 30 pm or 20 pm. Any method can be used to determine particle size distribution. One preferred method is to use a light scattering or Coulter counter method. It is preferred that 90% of the particles (D(0.9)) be less than 15 pm, more preferably, D(0.9) is in the range of 10-15 pm. It is preferred that 100% of the particles (D(1)) be less than 30 pm, more preferably less than about 20 pm.
During autoclaving due to high temperature and pressure, brinzolamide goes in solution. Upon completion of the autoclave cycle, during cooling, brinzolamide starts precipitating out. Brinzolamide forms needle shaped crystals of 1000 to 3000 microns. These needle shaped crystals of brinzolamide are further reduced in fine crystalline form to be used in the present invention formulation and the reduced particle size is as per table 3.
This particle size is further reduced to […] through rapid cooling with stirring. […]

Take `CCN[C@H]1CN(CCCOC)S(=O)(=O)c2sc(S(N)(=O)=O)cc21` [API, (R)-(+)-4-ethylamino-2-(3-methoxypropyl)-3,4-dihydro-2H-thieno[3,2-e]-1,2-thiazine-6-sulfonamide-1,1-dioxide]: the “size of needle shaped crystals” value was 1000 to 3000 microns.
